Data reported in US20100317686A1, “N-HETEROCYCLIC-6-HETEROCYCLIC-IMIDAZO[1,2-a]PYRIDINE-2-CARBOXAMIDE DERIVATIVES, PREPARATION AND THERAPEUTIC USE THEREOF” (sanofi-aventis, priority 2008, published 2010).

Target: T1, murine Nurr1 receptor (Mus musculus, UniProt Q06219)
T1 construct: a cell line (N2A) endogenously expressing the murine Nurr1 receptor; host or cells: Neuro-2A (N2A) mouse neuroblastoma cells stably transfected with 8NBRE-luciferase
Experiment: In vitro activity on N2A cells (Neuro-2A stably transfected with 8NBRE-luciferase reporter)
Assay type: cell-based
Details: N2A-8NBRE cells, 24 hours incubation with product
Procedure: The activity of the compounds according to the invention was evaluated on a cell line (N2A) endogenously expressing the murine Nurr1 receptor and stably transfected with the NOT binding response element (NBRE) coupled to the luciferase reporter gene. The EC50 values are between 0.01 and 1000 nM. The tests were performed according to the procedure described hereinbelow.
The cell line Neuro-2A is obtained from a standard commercial source (ATCC). The clone Neuro-2A was obtained from a spontaneous tumour originating from a strain of albino mice A by R. J Klebe et al. This line Neuro-2A is then stably transfected with 8NBRE-luciferase. The N2A-8NBRE cells are cultured to the point of confluence in 75 cm^2 culture flasks containing DMEM supplemented with 10% foetal calf serum, 4.5 g/L of glucose and 0.4 mg/ml of geneticin. After culturing for one week, the cells are recovered with 0.25% trypsin for 30 seconds and then resuspended in DMEM without phenol red, containing 4.5 g/L of glucose and 10% Hyclone defatted serum, and placed in white, transparent-based 96-well plates. The cells are deposited at a rate of 60 000 per well in 75 μL for 24 hours before adding the products. The products are applied in 25 μL and incubated for a further 24 hours. On the day of measurement, an equivalent volume (100 μL) of Steadylite is added to each well, and the wells are then left for 30 minutes to obtain complete lysis of the cells and maximum production of the signal. The plates are then measured in a microplate luminescence counter, after having been sealed with an adhesive film. The products are prepared in the form of a 10^−2 M stock solution, and then diluted in 100% of DMSO. Each concentration of product is prediluted in culture medium before incubation with the cells thus containing 0.625% final of DMSO.

T1 sequence (Q06219 whole entry): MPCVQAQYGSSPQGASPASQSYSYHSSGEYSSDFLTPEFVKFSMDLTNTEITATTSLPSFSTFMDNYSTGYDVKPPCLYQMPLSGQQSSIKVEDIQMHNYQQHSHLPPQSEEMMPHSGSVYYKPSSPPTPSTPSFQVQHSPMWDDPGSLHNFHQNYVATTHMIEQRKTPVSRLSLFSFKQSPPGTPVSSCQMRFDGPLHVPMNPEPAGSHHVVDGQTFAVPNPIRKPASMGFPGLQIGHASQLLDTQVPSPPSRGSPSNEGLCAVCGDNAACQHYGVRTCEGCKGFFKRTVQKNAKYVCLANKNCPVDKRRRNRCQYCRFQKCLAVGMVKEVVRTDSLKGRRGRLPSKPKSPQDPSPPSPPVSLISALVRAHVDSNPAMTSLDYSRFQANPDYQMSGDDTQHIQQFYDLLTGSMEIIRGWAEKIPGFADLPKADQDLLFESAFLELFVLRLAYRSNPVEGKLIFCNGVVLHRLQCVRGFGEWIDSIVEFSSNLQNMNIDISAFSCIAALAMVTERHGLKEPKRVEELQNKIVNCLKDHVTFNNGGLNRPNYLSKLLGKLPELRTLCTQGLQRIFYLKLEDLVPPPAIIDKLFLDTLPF

Row | SMILES | EC50 [nM]
1 | Nc1cccc(-c2ccc3nc(C(=O)Nc4ccccn4)cn3c2)n1 [Compound 1, 6-(6-Aminopyridin-2-yl)-N-(pyridin-2-yl)imidazo[1,2-a]pyridine-2-carboxamide] | 16
2 | O=C(Nc1ccccn1)c1cn2cc(-c3c[nH]cn3)ccc2n1 [Compound 2, 6-(1H-Imidazol-4-yl)-N-(pyridin-2-yl)imidazo[1,2-a]pyridine-2-carboxamide] | 1.5
3 | O=C(Nc1nccs1)c1cn2cc(-c3ccccn3)ccc2n1 [Compound 7] | 0.8
4 | O=C(Nc1cc[nH]n1)c1cn2cc(-c3ccccn3)ccc2n1 [Compound 10, N-(1H-Pyrazol-3-yl)-6-(pyridin-2-yl)imidazo[1,2-a]pyridine-2-carboxamide] | 21
5 | O=C(Nc1ccon1)c1cn2cc(-c3ccc(CO)o3)ccc2n1 [Compound 22, 6-[5-(Hydroxymethyl)furan-2-yl]-N-(isoxazol-3-yl)imidazo[1,2-a]pyridine-2-carboxamide] | 2
6 | O=C(Nc1cccc(F)n1)c1cn2cc(-c3ccoc3)ccc2n1 [Compound 36, N-(6-Fluoropyridin-2-yl)-6-(furan-3-yl)imidazo[1,2-a]pyridine-2-carboxamide] | 0.4

Next, values leading:

Row | EC50 [nM] | SMILES
7 | 1.5 | O=C(Nc1nncs1)c1cn2cc(-c3cc[nH]c3)ccc2n1 [Compound 51, 6-(1H-Pyrrol-3-yl)-N-(1,3,4-thiadiazol-2-yl)imidazo[1,2-a]pyridine-2-carboxamide]
8 | 1 | O=C(Nc1nccs1)c1cn2cc(-c3cc[nH]n3)ccc2n1 [Compound 56, 6-(1H-Pyrazol-3-yl)-N-(thiazol-2-yl)imidazo[1,2-a]pyridine-2-carboxamide]
9 | 5.3 | O=C(Nc1nncs1)c1cn2cc(-c3cc[nH]n3)ccc2n1 [Compound 58, 6-(1H-Pyrazol-3-yl)-N-(1,3,4-thiadiazol-2-yl)imidazo[1,2-a]pyridine-2-carboxamide]
